Columns and labels:
HBV [1] = test: In vivo pharmacodynamic experiment, HBV DNA in serum; set-up: species or system HBV transgenic BALB/c; settings: intravenous injection, LAM 150 mg/kg, ETV 3.2 mg/kg, intron2 3 × 10^10, intron5 1.5 × 10^11 vg/animal, relative, D 0 = 1
Experimental: (§1) Two drugs having two structures scAAV2/8-H1-shRNA2-intron2 and scAAV2/8-H1-shRNA2-intron5 were compared with the commercial drugs lamivudine and entecavir for evaluating in vivo efficacy. The administration mode was intravenous injection, and 14 days was a blood collection period. After separating serum samples, HBsAg and HBV DNA were detected. The grouping of animal experiments is shown as follows:
(§2) The experiment was conducted for total of […] (38 weeks). For the experimental method, see Example 2 “4. Expression and detection of target gene” The detection results are shown in FIG. 40 and Table 2-12 (BsAg detection), and FIG. 41 and Table 2-13 (BV DNA detection).

HBV [2] = test: In vivo pharmacodynamic experiment, HBsAg in serum; set-up: species or system HBV transgenic BALB/c; settings: intravenous injection, LAM 150 mg/kg, ETV 3.2 mg/kg, intron2 3 × 10^10, intron5 1.5 × 10^11 vg/animal, relative, D 0 = 1
Experimental: as §1, §2

Structure (SMILES)	HBV DNA detection in serum, D 0 (HBV [1])	HBV DNA detection in serum, D 14 (HBV [1])	HBV DNA detection in serum, D 28 (HBV [1])	HBV DNA detection in serum, D 35 (HBV [1])	HBV DNA detection in serum, D 49 (HBV [1])	HBV DNA detection in serum, D 70 (HBV [1])	HBV DNA detection in serum, D 98 (HBV [1])	HBV DNA detection in serum, D 126 (HBV [1])	HBV DNA detection in serum, D 154 (HBV [1])	HBV DNA detection in serum, D 182 (HBV [1])	HBV DNA detection in serum, D 210 (HBV [1])	HBV DNA detection in serum, D 238 (HBV [1])	HBV DNA detection in serum, D 266 (HBV [1])	HBsAg detection in serum, D 0 (HBV [2])	HBsAg detection in serum, D 14 (HBV [2])	HBsAg detection in serum, D 28 (HBV [2])	HBsAg detection in serum, D 35 (HBV [2])	HBsAg detection in serum, D 49 (HBV [2])	HBsAg detection in serum, D 70 (HBV [2])	HBsAg detection in serum, D 98 (HBV [2])	other results
C=C1[C@H](CO)[C@@H](O)C[C@@H]1n1cnc2c(=O)[nH]c(N)nc21 [ETV, Entecavir]	1	8.68	1.24	1.08	1.25	3.93	1.05	0.72	1.06	3.33	5.5	2.96	1.55	1	1.51	1.55	1.8	1.4	1.33	1.34	HBsAg detection in serum, D 126 (HBV [2]): 1.48; HBsAg detection in serum, D 154 (HBV [2]): 0.75; HBsAg detection in serum, D 182 (HBV [2]): 0.81; HBsAg detection in serum, D 210 (HBV [2]): 1.57; HBsAg detection in serum, D 238 (HBV [2]): 0.83; HBsAg detection in serum, D 266 (HBV [2]): 0.94
Nc1ccn([C@@H]2CS[C@H](CO)O2)c(=O)n1 [LAM, Lamivudine]	1	0.69	0.87	0.72	0.68	1.26	0.41	0.24	0.56	0.8	0.28	0.26	0.07	1	0.98	0.96	1.23	1.21	1.01	1.19	HBsAg detection in serum, D 126 (HBV [2]): 1.46; HBsAg detection in serum, D 154 (HBV [2]): 0.66; HBsAg detection in serum, D 182 (HBV [2]): 0.76; HBsAg detection in serum, D 210 (HBV [2]): 1.16; HBsAg detection in serum, D 238 (HBV [2]): 0.5; HBsAg detection in serum, D 266 (HBV [2]): 0.54

Source: patent US20210108197A1, “SHRNA EXPRESSION CASSETTE, POLY[…] CARRYING SAME, AND APPLICATION THEREOF” (priority 2017, published 2021)
